Earlier results, collected in patent US8889636B2, “Anti-microbial compositions” (Biotelliga Holdings Limited, priority 2010, dated 2014).
In brackets after ≈: the same amount, converted by molar mass.

Key:
[1] = tested on: Candidia albacans; settings: modest antifungal activity
[2] = tested on: HIV-1 regulatory protein and its viral RNA binding site

CCC(C)CC(C)/C=C(/C=C(C)/C=C/C=C/C=C/C=C/C=C/c1cc2c(c(=O)o1)[C@H](O)[C@@H](O)[C@H](C(O)C(O)CO)O2)C(=O)O (some centres unmarked) [Orevactaene]
MIC [1]: 250 µg/mL (≈ 408 µM)
Inhibition of binding of HIV-1 regulatory protein and its viral RNA binding site [2]: found to inhibit binding
